# From patent US8304418B2, “Pyrazolopyrimidinone kinase inhibitor” (Agennix AG, priority 2007, dated 2012)
# “And” between values parts separate entries of the source, which are not always exact repeats. Equal values may be shown once. Read-outs that look alike come from different tables or passages of the source.
# Key:
# [1] = molecular target: CDK6 (Homo sapiens, UniProt Q00534); assay: Biochemical CDK6 inhibition assay
# Description: (§1) The assays used for determining the properties of the kinase inhibitors were performed in accordance with standard procedures well known to those skilled in the art. For example, assays for determining inhibitory activity on CDKs or in cellular assays are described in WO 00/218962, WO 2005/026129, and WO 2005/063765. Solubility assays at pH 7.4 were essentially performed as described by Avdeef, A. in Pharmacokinetic Optimization in Drug Research; Testa, B.; van de Waterbeemd, H.; Folkers, G.; Guy, R. Eds.; Wiley-VHC: Zurich, 2001; pp 305-326. PAMPA permeability assays at pH 7.4 were essentially performed as described in Kansy et al., J. Med. Chem. 41: 1007-10, 1998.
# [2] = tested on: human A2780 ovarian tumor cells
# Description: (§4) Xenograft Tumor-Models: 100 athymic nu/nu female mice (6-8 weeks old) from CRL were allowed to acclimate for 4 days. […] The 3rd passage of cells with approximate 90% confluence was used for these experiments. Briefly, on Day 0, mice were inoculated with 0.1 ml (total 5×10^6 cells) of the respective cell-type as a cell suspension (50×10^6 cells/ml) by subcutaneous injection into the fat pad area near the mammary gland under light anesthesia. When the average tumor weight in all mice reached over 100 mg (day 10), 80 animals with an average tumor size of 130 mg were selected and were randomly divided into 8 groups.
# (§5) A 20 G gavage needle was used for the oral treatment.
# (§6) Tumor growth and body weight were monitored and recorded three times a week. Tumors were measured by determining the length and width of the tumor with a digital caliper. Tumor weight was estimated using the following formula: Tumor Weight (mg)=(w^2×1)×0.52 where w=width and l=length in mm of the tumor.
# (§7) Experimental treatment may cause partial regression (PR) or complete regression (CR) of tumors. PR is defined when the tumor size is 50% or less than the starting (day 1) size but greater than 0.0 mg for three consecutive measurements during the course of the study. CR occurs when there is no measurable tumor mass for three consecutive measurements. Cures are defined when CR are maintained until the completion of the experiment.
# (§8) Mice were sacrificed when their tumors reached the 1000 mm^3 endpoint volume. Treatment efficacy was determined as Log Cell Kill (LCK).
# (§9) Toxic deaths are defined as deaths caused by compound treatment and not by advanced disease state. […] Non-tumor related deaths after this point are recorded, but not considered toxic deaths.
# (§10) Briefly, the empirical distributions of T and Td were derived from B=1000 realisations of random selection of n individual animals with replacement from the set i=1, . . . , n of the appropriate group of mice containing n evaluable animals, estimating the mean tumor size for such selection of animals for each time-point, and linear regression analysis from a semi-log plot of such averages against time. Dead mice and mice with no measurable tumor size were treated as missing data and were ignored when calculating the average.
# [3] = tested on: H460 NSCLC; settings: for Max % TGI (d): day 13; for Toxic Mortality: N=10
# [4] = tested on: CDK1-dependent Eg-5 phosphorylation on threonine 927; assay: In-cell Eg-5 phosphorylation (immunoblot); assay type: cell-based, human; settings: 1 h
# Text: (§2) This set of assays represents CDKs involved in cell cycle progression (CDK1, 4/6), and the “regulatory CDK” (CDK9) which is involved in transcriptional regulation.
# (§3) The following cancer cell lines were investigated in the course of these studies: A2780 (ovarian), HCT116 (colon), RPMI8226 (myeloma), SKMel28 (melanoma), Colo205 (colorectal), MDA-MB-435 (melanoma), MDA-MB-453 (breast, carcinoma), MDA-MB-468 (breast, adenocarcinoma), A549 (lung), Raji (lymphoma, Burkitt). Cell lines were obtained from public repositories.
# CDK1-dependent Eg-5 phosphorylation on threonine 927 (Thr927phos). Thr927phos was investigated by arresting cells over night in G2/M phase with 25 ng/ml nocodazole (optimized final concentration) followed by treatment with DMSO as control or an appropriate concentration of test compound for 1 hour. Detached as well as adherent cells were collected and lysed with CLB-1 lysis buffer. the lysate cleared by centrifugation and subjected to SDS-PAGE. The proteins were blotted on PVDF membranes and subsequently analyzed by antibodies against total Eg-5 (Becton Dickinson) and Eg-5 Thr927phos (Bio legend). Visualization and estimation of IC50 was conducted as above.
# [5] = tested on: HCT116 colon carcinoma cells
# Description: as §4, §5, §6, §7, §8, §9, §10
# [6] = tested on: CDK4/6-specific phosphorylation of Rb on serine 780; assay: In-cell Rb phosphorylation (immunoblot); assay type: cell-based, human; settings: 1 h, read-out: IC50 (uM) - Rb-5 phosphorylation
# Text: as §2, §3
# CDK4/6-specific phosphorylation of Rb on serine 780 (Ser780phos). Asynchronous growing cells were treated with an appropriate concentration of test compound or DMSO for 1 hour. Proteins were extracted using the AllPrep RNA/Protein kit according to the manufacturer's recommendations (Qiagen, Germany). Rb was immunoprecipitated over night using Ab05 antibody (Oncogene Inc.). Proteins were separated by SDS-PAGE, blotted to PVDF membranes and analyzed with antibodies against total (sc-102; Santa Cruz) or Ser780-phosphorylated Rb proteins (Cell Signalling). Visualization and quantification was performed as above.
# [7] = tested on: CDK9-specific phosphorylation of RNA polymerase II (RNAPII) on serine 2; assay: In-cell RNAPII phosphorylation (immunoblot); assay type: cell-based, human; settings: 3 h
# Description: as §3
# CDK9-specific phosphorylation of RNA polymerase II (RNAPII) on Serine 2 (Ser2). Asynchronous cells were treated with an appropriate concentration of test compound or DMSO as a control. After 3 h incubation (37° C./5% CO2) cells were lysed with CLB-1 lysis buffer (Zeptosense, Switzerland), the lysate was cleared by centrifugation (10 min, 13000 rpm, RT) and subjected to SDS-PAGE. Total protein was blotted on PVDF membranes and analyzed using antibodies against S2-phosphorylated RNAPII (H5; Covance) or total RNAPII (N-20; Santa Cruz) as an expression control. Visualization was conducted using secondary Alexa680- or IR800-coupled antibodies (Molecular Probes) against mouse or rabbit Fc tails on the Odyssey-system (Licor). Specific bands were quantified and IC50 values of inhibition of RNAPII phosphorylation were estimated.
# [8] = tested on: human A2780 ovarian tumor cells; remark: listed apart in the source
# Description: Compound P (as hydrochloric acid salt) was formulated in 30% PEG300/70% water, and Compound I (as hydrochloric acid salt) was formulated in 20% PEG300/80% D5W (5% dextrose water) and administered by oral gavage twice every day for 10 days (bid×10), while the Cytoxan control which was administered i.p. in saline every two days over a period of 10 days (q2 d×5): […]
# [9] = Solubility assay at pH 7.4; assay type: physicochemical; settings: pH 7.4, aqueous buffer
# Description: as §1
# [10] = tested on: cell lines A2780, HCT-116, HT-29, HepG2, NCI/ADR-RES, OVCAR3, H460, IMR-90, T98G, A549 among others; assay: Inhibition of proliferation in a set of cancer-model cell lines; assay type: cell-based; settings: units (μM and nM) printed inside the value, read-out: IC50 values, inhibition of proliferation (range over cell lines)
# Description: as §1
# [11] = PAMPA permeability assay at pH 7.4; assay type: in vitro ADME
# Description: as §1
# [12] = HCT116, 100 [93] mg/kg po qdx10
# [13] = 30 [28] mg/kg po bidx10, day 10
# Chain of CDK6 (Q00534 whole entry): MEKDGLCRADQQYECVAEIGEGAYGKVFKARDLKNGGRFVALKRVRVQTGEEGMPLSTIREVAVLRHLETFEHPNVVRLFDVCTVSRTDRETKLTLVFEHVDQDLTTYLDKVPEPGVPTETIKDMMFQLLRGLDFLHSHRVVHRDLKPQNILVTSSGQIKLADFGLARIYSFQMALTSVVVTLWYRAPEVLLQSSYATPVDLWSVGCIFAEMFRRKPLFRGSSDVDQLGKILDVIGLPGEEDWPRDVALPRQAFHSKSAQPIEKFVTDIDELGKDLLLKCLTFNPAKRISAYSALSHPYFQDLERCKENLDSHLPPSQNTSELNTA
# Chain of CDK6 (P30281 whole entry partner): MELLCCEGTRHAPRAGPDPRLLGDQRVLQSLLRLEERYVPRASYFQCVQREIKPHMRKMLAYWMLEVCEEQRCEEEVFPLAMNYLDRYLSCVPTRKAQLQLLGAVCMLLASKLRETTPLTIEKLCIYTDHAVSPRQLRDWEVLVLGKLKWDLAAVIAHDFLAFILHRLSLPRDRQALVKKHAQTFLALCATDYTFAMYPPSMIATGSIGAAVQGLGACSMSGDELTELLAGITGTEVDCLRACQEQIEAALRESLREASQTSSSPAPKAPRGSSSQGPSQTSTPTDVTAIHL
compound,measurement,setting,value
COc1ccc(F)c(F)c1C(=O)c1cnc(NC2CCN(S(C)(=O)=O)CC2)nc1N [Compound R547],IC50,[1],~0.01 µM
same,LCK ± CI (95%) (Td: 1.7 d),[2]; 100 mg/kg po qdx1,1.05 ± 0.56
same,Max % BW Loss (d),"[2]; 100 mg/kg po qdx1 (planned qdx10), day 9",7.5 (9) %
same,Max % TGI (d),"[2]; 100 mg/kg po qdx1, day 11",68.5 (11) %
same,LCK ± CI (95%) (Td: 2.6 d),"[3]; H460, 40 mg/kg po q2dx5",0.48 ± 0.20 and 0.48
same,Max % BW Loss (d),"[3]; H460, 40 mg/kg po q2dx5, day 8",1.3 (8) %
same,Max % TGI (d),"[3]; H460, 40 mg/kg po q2dx5",47.5 (13) %
same,IC50,[4]; A549 cells,~0.03 µM
same,IC50,[4]; A2780 cells,~0.01 µM
same,IC50,[4]; Colo205 cells,~0.05 µM
same,IC50,[4]; HCT116 cells,~0.1 µM
same,IC50,[4]; MDA-MB-435 cells,~0.1 µM
same,IC50,[4]; MDA-MB-453 cells,~0.1 µM
same,IC50,[4]; RPMI8226 cells,~0.05 µM
same,IC50,[4]; Raji cells,~0.1 µM
same,LCK ± CI (95%) (Td: 6.8 d),"[5]; HCT116, 100 mg/kg po qdx10 (R547 suspension)",0.70 ± 0.28
same,Max % BW Loss (d),"[5]; HCT116, 100 mg/kg po qdx10 (R547 suspension), day 12",14.5 (12) %
same,Max % TGI (d),"[5]; HCT116, 100 mg/kg po qdx10 (R547 suspension), day 16",72.8 (16) %
same,IC50,[6]; A2780 cells,~0.1 µM
same,IC50,[6]; Colo205 cells,~0.1 µM
same,IC50,[6]; HCT116 cells,~0.1 µM
same,IC50,[6]; MDA-MB-435 cells,~0.3 µM
same,IC50,[6]; RPMI8226 cells,~0.3 µM
same,IC50,[6]; Sk-mel-28 cells,~0.1 µM
same,IC50,[7]; A2780 cells,~1 µM
same,IC50,[7]; Colo205 cells,~0.5 µM
same,IC50,[7]; HCT116 cells,~0.3 µM
same,IC50,[7]; MDA-MB-468 cells,~0.3 µM
same,IC50,[7]; RPMI8226 cells,~0.5 µM
same,IC50,[7]; Sk-mel-28 cells,~0.3 µM
"O=P1(N(CCCl)CCCl)NCCCO1 (stereo not shown) [Cytoxan, cyclophosphamide]",LCK ± CI (95%) (Td: 2.1 d),[8]; 100 mg/kg ip q2dx5,3.56 ± 0.43 and 3.56
same,Cure,"[8]; 100 mg/kg ip q2dx5, N=10",0
same,Toxic Mortality,"[8]; 100 mg/kg ip q2dx5, N=10",0
same,Max % BW Loss (d),"[8]; 100 mg/kg ip q2dx5, day 10",5.9 (10) %
same,Max % TGI (d),"[8]; 100 mg/kg ip q2dx5, day 13",98 (13) %
same,CR,"[8]; 100 mg/kg ip q2dx5, mice with complete regression, N=10",5
same,PR,"[8]; 100 mg/kg ip q2dx5, mice with partial regression, N=10",5
"CC(C)c1nn(-c2c(Cl)cccc2Cl)c2nc(Cc3ccc(CN4CCCC4)c(O)c3)[nH]c(=O)c12 [Compound P, 1-(2,6-dichlorophenyl)-6-(3-hydroxy-4-pyrrolidinomethyl-phenyl)methyl-3-isopropyl-pyrazolo[3,4-d]pyrimidin-4-one]",solubility,[9],~210 µM
same,LCK ± CI (95%) (Td: 1.7 d),[2]; 40 [37] mg/kg po qdx10,0.34 ± 0.21 and 0.34
same,Toxic Mortality,"[2]; 40 [37] mg/kg po qdx10, N=10",0
same,Max % TGI (d),"[2]; 40 [37] mg/kg po qdx10, day 11",46.2 (11) %
same,LCK ± CI (95%) (Td: 1.7 d),[2]; 70 [65] mg/kg po qdx10,0.75 ± 0.46 and 0.75
same,Toxic Mortality,"[2]; 70 [65] mg/kg po qdx10, N=10",0
same,Max % TGI (d),"[2]; 70 [65] mg/kg po qdx10, day 11",61.1 (11) %
same,LCK ± CI (95%) (Td: 1.7 d),[2]; 100 [93] mg/kg po qdx9,1.78 ± 0.56 and 1.78
same,Toxic Mortality,[2]; 100 [93] mg/kg po qdx9,1/10
same,Max % TGI (d),"[2]; 100 [93] mg/kg po qdx9, day 11",83.9 (11) %
same,LCK ± CI (95%) (Td: 2.6 d),"[3]; H460, 40 [37] mg/kg po qdx10",0.22 ± 0.12 and 0.22
same,Toxic Mortality,"[3]; H460, 40 [37] mg/kg po qdx10",0
same,Max % TGI (d),"[3]; H460, 40 [37] mg/kg po qdx10",29.6 (13) %
same,LCK ± CI (95%) (Td: 2.6 d),"[3]; H460, 70 [65] mg/kg po qdx10",0.26 ± 0.12 and 0.26
same,Toxic Mortality,"[3]; H460, 70 [65] mg/kg po qdx10",0
same,Max % TGI (d),"[3]; H460, 70 [65] mg/kg po qdx10",33.9 (13) %
same,LCK ± CI (95%) (Td: 2.6 d),"[3]; H460, 100 [93] mg/kg po qdx10",0.54 ± 0.17 and 0.48 and 0.54
same,Toxic Mortality,"[3]; H460, 100 [93] mg/kg po qdx10",0
same,Max % TGI (d),"[3]; H460, 100 [93] mg/kg po qdx10",48.7 (13) %
same,Max % BW Loss (d),"[3]; mouse, in vivo, po",1.0 (8) % and 0% and 7.4 (13) %
same,IC50,[10],0.016 to 1.6 µM
same,LCK ± CI (95%) (Td: 6.8 d),"[5]; HCT116, 40 [37] mg/kg po qdx10",0.23 ± 0.11 and 0.23
same,Max % TGI (d),"[5]; HCT116, 40 [37] mg/kg po qdx10, day 20",36.2 (20) %
same,LCK ± CI (95%) (Td: 6.8 d),"[5]; HCT116, 70 [65] mg/kg po qdx10",0.41 ± 0.22 and 0.41
same,Max % TGI (d),"[5]; HCT116, 70 [65] mg/kg po qdx10, day 32",50.2 (32) %
same,LCK ± CI (95%) (Td: 6.8 d),[5]; [12],0.38 ± 0.13 and 0.38
same,Toxic Mortality,[5]; [12],1/10
same,Max % TGI (d),"[5]; HCT116, 100 [93] mg/kg po qdx10, day 16",60.1 (16) %
same,Max % BW Loss (d),"[5]; mouse, in vivo, po",17.3 (16) %
same,LCK ± CI (95%) (Td: 2.1 d),[8]; 15 [14] mg/kg po bidx10,0.20 ± 0.16 and 0.20
same,Toxic Mortality,"[8]; 15 [14] mg/kg po bidx10, N=10",0
same,Max % TGI (d),"[8]; 15 [14] mg/kg po bidx10, day 10",34 (10) %
same,Max % BW Loss (d),"[8]; 15 [14 free base] mg/kg po bidx10, HCl salt, day 6",0 (6) %
same,LCK ± CI (95%) (Td: 2.1 d),[8]; 30 [28] mg/kg po bidx10,0.44 ± 0.19 and 0.44
same,Toxic Mortality,"[8]; 30 [28] mg/kg po bidx10, N=10",0
same,Max % BW Loss (d),[8]; [13],0.1 (10) %
same,Max % TGI (d),[8]; [13],54 (10) %
same,LCK ± CI (95%) (Td: 2.1 d),[8]; 50 [47] mg/kg po bidx10,1.06 ± 0.48 and 1.06
same,Toxic Mortality,"[8]; 50 [47] mg/kg po bidx10, N=10",0
same,Max % TGI (d),"[8]; 50 [47] mg/kg po bidx10, day 13",81 (13) %
same,Max % BW Loss (d),"[8]; 50 [47] mg/kg po bidx10, day 15",4.7 (15) %
same,permeability in a PAMPA assay,[11],about 57%
